Reference: patent US8383666B2, “Pyrrole derivatives, preparation of same and therapeutic application thereof” (Sanofi, priority 2008, dated 2013)

Experiments:
[1] = target: T1, CB1 receptors present in the brain (Mus musculus, UniProt P47746); experiment: Measurement (3): blocking of the hypothermic effect induced by CP55940; type: in vivo; parameters: [CB1 receptors present; from tissue; host or cells: living animal, brain CB1 receptors; conditions: iv at 10 mg/kg
From the text: (§1) Preferably, this percentage is less than 40%, and more preferably less than 30%.

[2] = target: T1, CB1 receptors present in the brain; experiment: Measurement (2): ex vivo binding of [3H]-CP55940 in the brain after intravenous administration; parameters: the CB1 receptors present in the brain in mice; from tissue; host or cells: mouse brain (after intravenous dosing); conditions: iv at 10 mg/kg, mice, read-out: % inhibition of [3H]-CP55940 binding at the level of the brain
From the text: as §1

[3] = Measurement (1): quantification of compound in brain and plasma by LC-MS/MS; type: in vivo; conditions: iv at 3 mg/kg, according to measurement (1), mouse, read-out: Ratio: Amount present in the brain/Amount present in the plasma
From the text: as §1

[4] = target: T2, CB1 receptors present at the periphery (Mus musculus, UniProt P47746); experiment: blocking of the inhibitory effect of CP55940 on gastrointestinal transit; type: in vivo; conditions: per os at 10 mg/kg, mice
T2 construct: from tissue; host or cells: living mouse, peripheral (gastrointestinal) CB1 receptors
T2 sequence (P47746 whole entry): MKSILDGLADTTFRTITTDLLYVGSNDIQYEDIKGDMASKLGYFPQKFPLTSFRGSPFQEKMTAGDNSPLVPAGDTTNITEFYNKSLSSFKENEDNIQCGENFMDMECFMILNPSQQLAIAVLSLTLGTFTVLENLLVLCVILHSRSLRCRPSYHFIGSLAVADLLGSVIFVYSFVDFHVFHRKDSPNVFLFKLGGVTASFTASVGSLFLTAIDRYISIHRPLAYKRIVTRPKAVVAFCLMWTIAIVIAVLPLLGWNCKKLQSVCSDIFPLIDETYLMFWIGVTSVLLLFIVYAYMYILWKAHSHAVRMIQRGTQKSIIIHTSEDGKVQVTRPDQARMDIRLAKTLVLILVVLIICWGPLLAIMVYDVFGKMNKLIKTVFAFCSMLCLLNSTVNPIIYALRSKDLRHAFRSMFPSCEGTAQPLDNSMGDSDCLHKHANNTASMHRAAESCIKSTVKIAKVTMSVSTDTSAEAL

T1 sequence (P47746 whole entry): as above

% reversion of the hypothermic effect of CP55940 [1] [%]	inhibition at 10 mg/kg [2] [%]	Kp [3]	% reversion of the effect of CP55940 on GI transit [4] [%]	Structure (SMILES)
64	25	–	–	Cn1c(C(=O)N2CCC(NCc3cccc(F)c3)(C(N)=O)CC2)cc(-c2ccc(Cl)cc2Cl)c1-c1ccc(OCCCO)cc1 [Compound 11, 1-[4-(2,4-dichlorophenyl)-5-[4-(3-hydroxypropoxy)phenyl]-1-methyl-1H-pyrrole-2-carbonyl]-4-(3-fluorobenzylamino)piperidine-4-carboxamide]
3	8	0.05	76	Cn1c(C(=O)N2CCC(C(N)=O)(c3ccccc3)CC2)cc(-c2ccc(Cl)cc2Cl)c1-c1ccc(OCC(N)=O)cc1 [Compound 16, 1-[5-(4-carbamoylmethoxy)phenyl-4-(2,4-dichlorophenyl)-1-methyl-1H-pyrrole-2-carbonyl]-4-phenylpiperidine-4-carboxamide]
20	1	–	100	Cn1c(C(=O)N2CCC(NCc3ccc(F)cc3)(C(N)=O)CC2)cc(-c2ccccc2Cl)c1-c1ccc(OCCCO)cc1 [Compound 24, 1-[4-(2-chlorophenyl)-5-[4-(3-hydroxypropoxy)phenyl]-1-methyl-1H-pyrrole-2-carbonyl]-4-(4-fluorobenzylamino)piperidine-4-carboxamide]
